Converted amounts (≈) assume the structure as drawn.
How the values were obtained:
E. coli NR698 = experiment: Bacteriostatic effect; assay type: cell-based; conditions: for MIC: Escherichia coli, NR698, 24 h, read-out: MIC, E. coli NR698; for MIC, E. coli NR698: 24 hr incubation at 37 °C, outer membrane leaky mutant
S. aureus 6538 = experiment: Bacteriostatic effect; assay type: cell-based; conditions: for MIC: Staphylococcus aureus, 6538, 24 h, read-out: MIC, S. aureus 6538; for MIC, S. aureus 6538: 24 hr incubation at 37 °C
EcSecAN68 = EcSecAN68 (Escherichia coli, UniProt P10408); experiment: biochemical; set-up: species or system E. coli
Chain of EcSecAN68 (P10408 1-610): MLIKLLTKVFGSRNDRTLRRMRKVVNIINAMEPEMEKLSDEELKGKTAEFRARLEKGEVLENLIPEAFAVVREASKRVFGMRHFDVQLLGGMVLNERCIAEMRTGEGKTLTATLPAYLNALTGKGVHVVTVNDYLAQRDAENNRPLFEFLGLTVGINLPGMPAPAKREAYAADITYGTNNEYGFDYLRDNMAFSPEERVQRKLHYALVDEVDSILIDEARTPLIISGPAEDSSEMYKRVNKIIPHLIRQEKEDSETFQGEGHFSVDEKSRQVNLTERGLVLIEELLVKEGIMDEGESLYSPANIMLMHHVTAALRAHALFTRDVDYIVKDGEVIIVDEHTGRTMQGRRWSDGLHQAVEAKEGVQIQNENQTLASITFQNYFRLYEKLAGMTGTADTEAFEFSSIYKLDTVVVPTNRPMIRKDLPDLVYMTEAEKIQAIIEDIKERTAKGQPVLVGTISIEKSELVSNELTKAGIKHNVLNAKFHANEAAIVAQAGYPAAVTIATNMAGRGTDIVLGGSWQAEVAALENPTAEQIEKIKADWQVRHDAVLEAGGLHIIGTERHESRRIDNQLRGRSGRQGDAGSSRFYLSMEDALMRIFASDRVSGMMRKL

S. aureus Mu50 = experiment: Bacteriostatic effect; assay type: cell-based

Fold by which 7b and 12a are more effective than the antibiotic (MIC) (S. aureus Mu50; S. aureus Mu50, label = antibiotic compared) [fold] | MIC (S. aureus Mu50; Staphylococcus aureus, MRSA, read-out: MIC, S. aureus Mu50) [µg/mL] | SMILES | MIC (E. coli NR698) [µM] | MIC (S. aureus 6538) [µM] | IC50 (EcSecAN68) [µM] | MIC, E. coli NR698 (E. coli NR698) [µM] | MIC, S. aureus 6538 (S. aureus 6538) [µM]
– | – | FC(F)(F)c1cc(-c2nnc(S)[nH]2)cc(C(F)(F)F)c1 [Compound 5a, 5-(3,5-Bis(trifluoromethyl)phenyl)-4H-1,2,4-triazole-3-thiol] | > 250 | > 250 | 60 | – | –
– | – | CSc1nc(C)cc(Sc2nnc(-c3cc(C(F)(F)F)cc(C(F)(F)F)c3)[nH]2)n1 [Compound 7a, 4-((5-(3,5-Bis(trifluoromethyl)phenyl)-4H-1,2,4-triazol-3-yl)thio)-6-methyl-2-(methylthio) pyrimidine] | 33.3 (≈ 15 µg/mL) | 18.8 (≈ 8.49 µg/mL) | – | – | –
– | – | CSc1nccc(Sc2nnc(-c3cc(C(F)(F)F)cc(C(F)(F)F)c3)[nH]2)n1 [Compound 7c, 4-((5-(3,5-Bis(trifluoromethyl)phenyl)-4H-1,2,4-triazol-3-yl)thio)-2-(methylthio) pyrimidine] | 50 (≈ 21.9 µg/mL) | 62.5 (≈ 27.3 µg/mL) | 95 | – | –
– | – | CSc1nccc(Sc2nnc(-c3cc(C)cc(C)c3)[nH]2)n1 [Compound 7d, 4-((5-(3,5-Dimethylphenyl)-4H-1,2,4-triazol-3-yl)thio)-2-(methylthio) pyrimidine] | > 250 | > 250 | 65 | – | –
– | – | CSc1nc(Cl)cc(Sc2nnc(-c3cc(C)cc(C)c3)[nH]2)n1 [Compound 7e, 4-Chloro-6-((5-(3,5-dimethylphenyl)-4H-1,2,4-triazol-3-yl)thio)-2-(methylthio) pyrimidine] | 50 (≈ 18.2 µg/mL) | 50 (≈ 18.2 µg/mL) | 30 | – | –
– | – | CSc1nc(Cl)cc(Sc2nnc(-c3cccc(F)c3)[nH]2)n1 [Compound 7f, 4-Chloro-6-((5-(3-fluorophenyl)-4H-1,2,4-triazol-3-yl)thio)-2-(methylthio) pyrimidine] | 200 (≈ 70.8 µg/mL) | 175 (≈ 61.9 µg/mL) | < 50 | – | –
– | – | CSc1nc(Cl)cc(Sc2nnc(-c3cc(F)cc(F)c3)[nH]2)n1 [Compound 7g, 4-Chloro-6-((5-(3,5-difluorophenyl)-4H-1,2,4-triazol-3-yl)thio)-2-(methylthio) pyrimidine] | 50 (≈ 18.6 µg/mL) | 41.6 (≈ 15.5 µg/mL) | > 100 | – | –
– | – | COc1cc(OC)cc(-c2nnc(Sc3cc(Cl)nc(SC)n3)[nH]2)c1 [Compound 7h, 4-Chloro-6-((5-(3,5-dimethoxyphenyl)-4H-1,2,4-triazol-3-yl)thio)-2-(methylthio) pyrimidine] | 100 (≈ 39.6 µg/mL) | > 250 | < 50 | – | –
– | – | CSc1nc(Cl)cc(Sc2nnc(-c3ccc(C(F)(F)F)cc3)[nH]2)n1 [Compound 7i, 4-Chloro-2-(methylthio)-6-((5-(4-(trifluoromethyl)phenyl)-4H-1,2,4-triazol-3-yl)thio) pyrimidine] | 25 (≈ 10.1 µg/mL) | 14.6 (≈ 5.9 µg/mL) | < 50 | – | –
– | – | CSc1nc(Cl)cc(Sc2nnc(-c3cccc(C(F)(F)F)c3)[nH]2)n1 [Compound 7j, 4-Chloro-2-(methylthio)-6-((5-(3-(trifluoromethyl)phenyl)-4H-1,2,4-triazol-3-yl)thio) pyrimidine] | > 250 | > 250 | < 50 | – | –
– | – | Cc1cc(C)cc(-c2nnc(Sc3cc(Cl)ncn3)[nH]2)c1 [Compound 9a, 4-Chloro-6-((5-(3,5-dimethylphenyl)-4H-1,2,4-triazol-3-yl)thio) pyrimidine] | > 250 | > 250 | > 200 | – | –
– | – | FC(F)(F)c1cc(-c2nnc(Sc3cc(Cl)ncn3)[nH]2)cc(C(F)(F)F)c1 [Compound 9b, 4-((5-(3,5-Bis(trifluoromethyl)phenyl)-4H-1,2,4-triazol-3-yl)thio)-6-chloropyrimidine] | 35.4 (≈ 15.1 µg/mL) | 18.8 (≈ 8 µg/mL) | 100 | – | –
– | – | Cc1cc(C)cc(-c2nnc(Sc3cc(Cl)nc(Sc4ccccc4)n3)[nH]2)c1 [Compound 12b, 4-Chloro-6-((5-(3,5-dimethylphenyl)-4H-1,2,4-triazol-3-yl)thio)-2-(phenylthio) pyri-midine] | – | – | – | >250 | 12.5 (≈ 5.32 µg/mL)
– | – | FC(F)(F)c1cc(-c2nnc(Sc3cc(Cl)nc(Oc4ccccc4)n3)[nH]2)cc(C(F)(F)F)c1 [Compound 12c, 4-((5-(3,5-Bis(trifluoromethyl)phenyl)-4H-1,2,4-triazol-3-yl)thio)-6-chloro-2-phenoxy-pyrimidine] | 8.3 (≈ 4.3 µg/mL) | 3.1 (≈ 1.61 µg/mL) | 9 | – | –
– | – | OCCCCSc1nc(Cl)cc(Sc2nnc(-c3cc(C(F)(F)F)cc(C(F)(F)F)c3)[nH]2)n1 [Compound 12e, 4-((4-((5-(3,5-Bis(trifluoromethyl)phenyl)-4H-1,2,4-triazol-3-yl)thio)-6-chloropyri-midin-2-yl)thio) butan-1-ol] | – | – | – | 43.8 (≈ 23.2 µg/mL) | 25.0 (≈ 13.2 µg/mL)
– | – | Fc1cc(F)cc(-c2nnc(Sc3cc(Cl)nc(Sc4ccccc4)n3)[nH]2)c1 [Compound 12f, 4-Chloro-6-((5-(3,5-difluorophenyl)-4H-1,2,4-triazol-3-yl)thio)-2-(phenylthio) pyrimidine] | 31.3 (≈ 13.6 µg/mL) | 20.8 (≈ 9.03 µg/mL) | < 50 | – | –
– | – | FC(F)(F)c1cccc(-c2nnc(Sc3cc(Cl)nc(Sc4ccccc4)n3)[nH]2)c1 [Compound 12g, 4-Chloro-2-(phenylthio)-6-((5-(3-(trifluoromethyl)phenyl)-4H-1,2,4-triazol-3-yl)thio) pyrimidine] | 18.8 (≈ 8.76 µg/mL) | 18.8 (≈ 8.76 µg/mL) | < 50 | – | –

Fold by which 7b and 12a are more effective than the antibiotic (MIC) (S. aureus Mu50; S. aureus Mu50, label = antibiotic compared) [fold] | MIC (S. aureus Mu50; Staphylococcus aureus, MRSA, read-out: MIC, S. aureus Mu50) [µg/mL] | SMILES | MIC (E. coli NR698) [µM] | MIC (S. aureus 6538) [µM] | IC50 (EcSecAN68) [µM] | MIC, E. coli NR698 (E. coli NR698) [µM] | MIC, S. aureus 6538 (S. aureus 6538) [µM]
– | – | COc1cc(OC)cc(-c2nnc(Sc3cc(Cl)nc(Sc4ccccc4)n3)[nH]2)c1 [Compound 12h, 4-Chloro-6-((5-(3,5-dimethoxyphenyl)-4H-1,2,4-triazol-3-yl)thio)-2-(phenylthio) pyrimidine] | > 250 | ≥ 100 | < 50 | – | –
– | – | FC(F)(F)c1ccc(-c2nnc(Sc3cc(Cl)nc(Sc4ccccc4)n3)[nH]2)cc1 [Compound 12i, 4-Chloro-2-(phenylthio)-6-((5-(4-(trifluoromethyl)phenyl)-4H-1,2,4-triazol-3-yl)thio) pyrimidine] | 12.5 (≈ 5.82 µg/mL) | 8.3 (≈ 3.87 µg/mL) | < 50 | – | –
– | – | COc1cc(O)cc(-c2nnc(Sc3cc(Cl)nc(Sc4ccccc4)n3)[nH]2)c1 [Compound 12j, 3-(5-((6-Chloro-2-(phenylthio)pyrimidin-4-yl)thio)-4H-1,2,4-triazol-3-yl)-5-methoxy phenol] | > 250 | ≥ 250 | < 50 | – | –
– | – | CSc1nc(Cl)cc(Sc2nnc(-c3cc(C(F)(F)F)cc(C(F)(F)F)c3)o2)n1 [Compound 15, 2-(3,5-Bis(trifluoromethyl)phenyl)-5-((6-chloro-2-(methylthio)pyrimidin-4-yl)thio)-1,3,4-oxadiazole] | > 100 | > 250 | 200 | – | –
– | – | FC(F)(F)c1cc(-c2n[nH]c(Sc3nc(Cl)cc(Cl)n3)n2)cc(C(F)(F)F)c1 [Compound 16a, 2-((3-(3,5-Bis(trifluoromethyl)phenyl)-1H-1,2,4-triazol-5-yl)thio)-4,6-dichloropyrimidine] | 12.5 (≈ 5.75 µg/mL) | 6.3 (≈ 2.9 µg/mL) | 50 | – | –
– | – | Cc1cc(C)cc(-c2n[nH]c(Sc3nc(Cl)cc(Cl)n3)n2)c1 [Compound 16b, 4,6-Dichloro-2-((3-(3,5-dimethylphenyl)-1H-1,2,4-triazol-5-yl)thio) pyrimidine] | > 164 | 100 (≈ 35.2 µg/mL) | – | – | –
– | – | Fc1cccc(-c2nnc(Sc3nc(Cl)cc(Cl)n3)[nH]2)c1 [Compound 16d, 4,6-Dichloro-2-((5-(3-fluorophenyl)-4H-1,2,4-triazol-3-yl)thio) pyrimidine] | 200 (≈ 68.4 µg/mL) | ≥ 100 | > 100 | – | –
– | – | FC(F)(F)c1cc(-c2nnc(Sc3nc(Cl)cc(NCc4ccccc4)n3)[nH]2)cc(C(F)(F)F)c1 [Compound 16e, N-Benzyl-2-((3-(3,5-bis(trifluoromethyl)phenyl)-4H-1,2,4-triazol-5-yl)thio)-6-chloro-pyrimidin-4-amine] | ≥ 250 | 50 (≈ 26.5 µg/mL) | > 50 | – | –
– | – | FC(F)(F)c1cc(-c2nnc(Sc3nc(Cl)cc(Cl)n3)o2)cc(C(F)(F)F)c1 [Compound 17, 2-(3,5-Bis(trifluoromethyl)phenyl)-5-((4,6-dichloropyrimidin-2-yl)thio)-1,3,4-oxadiazole] | > 250 | 18.8 (≈ 8.67 µg/mL) | 70 | – | –
– | – | FC(F)(F)c1cc(-c2n[nH]c(Oc3nc(Cl)cc(Oc4nnc(-c5cc(C(F)(F)F)cc(C(F)(F)F)c5)[nH]4)n3)n2)cc(C(F)(F)F)c1 [Compound 18] | > 250 | 250 (≈ 176 µg/mL) | < 50 | – | –
– | – | N#Cc1c(-c2ccc(Br)cc2)nc(Sc2nc(Cl)cc(Cl)n2)[nH]c1=O [Compound 20a, 4-(4-Bromophenyl)-2-((4,6-dichloropyrimidin-2-yl)thio)-6-oxo-1,6-dihydropyrimidine-5-carbonitrile] | > 250 | > 250 | < 50 | – | –
– | – | CCc1ccc(-c2nc(Sc3nc(Cl)cc(Cl)n3)[nH]c(=O)c2C#N)cc1 [Compound 20b, 2-((4,6-Dichloropyrimidin-2-yl)thio)-4-(4-ethylphenyl)-6-oxo-1,6-dihydropyrimidine-5-carbonitrile] | > 250 | > 250 | < 50 | – | –
– | – | CSc1nc(Cl)c2c(n1)Sc1nnc(-c3cc(C(F)(F)F)cc(C(F)(F)F)c3)n1N=C2 [Compound 24] | 12.5 (≈ 6.21 µg/mL) | 3.1 (≈ 1.54 µg/mL) | < 25 | – | –
– | – | CSc1nc(Cl)c2c(n1)Sc1nnc(-c3cc(C(F)(F)F)cc(C(F)(F)F)c3)n1NC2 [Compound 25] | > 250 | > 100 | 46 | – | –
– | – | CSC1=NC2=C(CN1)CNn1c(nnc1-c1cc(C(F)(F)F)cc(C(F)(F)F)c1)S2 [Compound 26] | > 100 | > 100 | 50 | – | –
> 1300 | 1000 (≈ 2860 µM) | CC1(C)S[C@@H]2[C@H](NC(=O)[C@H](N)c3ccccc3)C(=O)N2[C@H]1C(=O)O [ampicillin] | – | – | – | – | –
